Our source for the relative viability values is the supplement of paper PMC10307832.

Holding throughout (assay): relative viability (nuclei count vs DMSO), 5 days (fraction); higher = more cells survive
Compound in the assay “YM155 + Phenformin”: COCC[n+]1c2c(n(Cc3cnccn3)c1C)C(=O)c1ccccc1C2=O [YM155] + N=C(N)NC(=N)NCCc1ccccc1 [Phenformin] (partner 250 µM)
The method in brief: (§1)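 Lung cancer cell lines were seeded in 1536-well plates and dosed by pin tool the next day, with either a single drug or a fixed anchor-drug dose combined with five library-drug doses (not always all listed) spaced in √10 steps. Five days later, one step fixed the cells and stained their nuclei (final 0.05% Triton X-100, 1% formaldehyde, 1 ug/ml Hoechst), and nuclei were counted on 4× images. Relative viability is the nuclei count in treated wells divided by the count in vehicle wells, and each value is the median of duplicate plates.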

Compound in the assay “Quizartinib + Pemetrexed”: CC(C)(C)c1cc(NC(=O)Nc2ccc(-c3cn4c(n3)sc3cc(OCCN5CCOCC5)ccc34)cc2)no1 [Quizartinib] + Nc1nc2[nH]cc(CCc3ccc(C(=O)N[C@@H](CCC(=O)O)C(=O)O)cc3)c2c(=O)[nH]1 [Pemetrexed] (partner 0.2 µM)
The method in brief: as §1

Compound in the assay “Quizartinib + Navitoclax”: CC(C)(C)c1cc(NC(=O)Nc2ccc(-c3cn4c(n3)sc3cc(OCCN5CCOCC5)ccc34)cc2)no1 [Quizartinib] + CC1(C)CCC(c2ccc(Cl)cc2)=C(CN2CCN(c3ccc(C(=O)NS(=O)(=O)c4ccc(N[C@H](CCN5CCOCC5)CSc5ccccc5)c(S(=O)(=O)C(F)(F)F)c4)cc3)CC2)C1 [Navitoclax] (partner 0.5 µM)
Put shortly:
as §1

Compound in the assay “Quizartinib + Bortezomib”: CC(C)(C)c1cc(NC(=O)Nc2ccc(-c3cn4c(n3)sc3cc(OCCN5CCOCC5)ccc34)cc2)no1 [Quizartinib] + CC(C)C[C@H](NC(=O)[C@H](Cc1ccccc1)NC(=O)c1cnccn1)B(O)O [Bortezomib] (partner 0.002 µM)
Put shortly: as §1

Turning to NCI-H2228, the relative viability stood at 0.304 with YM155 + Phenformin (first compound 0.002 µM); 0.272 in the assay with YM155 + Phenformin (first compound 0.006325 µM); 0.375 in the assay with YM155 + Phenformin (first compound 0.02 µM); 0.338 in the assay with YM155 + Phenformin (first compound 0.06325 µM); 0.288 with Quizartinib + Pemetrexed (first compound 0.001 µM); 0.311 in the assay with Quizartinib + Pemetrexed (first compound 0.003162 µM). In addition, the relative viability in the assay with Quizartinib + Pemetrexed (first compound 0.01 µM) was found to be 0.355; in the assay with Quizartinib + Pemetrexed (first compound 0.03162 µM) it was 0.316; with Quizartinib + Pemetrexed (first compound 0.1 µM), 0.317; with Quizartinib + Navitoclax (first compound 0.001 µM), 0.859; with Quizartinib + Navitoclax (first compound 0.003162 µM) it was 0.702; in the assay with Quizartinib + Navitoclax (first compound 0.01 µM) it was 0.75. In addition, the relative viability stood at 1.08 in the assay with Quizartinib + Navitoclax (first compound 0.03162 µM); 0.98 with Quizartinib + Navitoclax (first compound 0.1 µM); 1.05 in the assay with Quizartinib + Bortezomib (first compound 0.001 µM); 0.995 with Quizartinib + Bortezomib (first compound 0.003162 µM); 0.937 with Quizartinib + Bortezomib (first compound 0.01 µM); 0.92 with Quizartinib + Bortezomib (first compound 0.03162 µM). Moreover, the relative viability in the assay with Quizartinib + Bortezomib (first compound 0.1 µM) came out at 1.08.
Regarding NCI-H2347, the relative viability came out at 0.489 with YM155 + Phenformin (first compound 0.002 µM); 0.395 in the assay with YM155 + Phenformin (first compound 0.006325 µM); 0.582 with YM155 + Phenformin (first compound 0.02 µM); 0.448 with YM155 + Phenformin (first compound 0.06325 µM); 0.426 with Quizartinib + Pemetrexed (first compound 0.001 µM); 0.382 in the assay with Quizartinib + Pemetrexed (first compound 0.003162 µM). The relative viability came to 0.45 in the assay with Quizartinib + Pemetrexed (first compound 0.01 µM); 0.443 with Quizartinib + Pemetrexed (first compound 0.03162 µM); 0.456 with Quizartinib + Pemetrexed (first compound 0.1 µM); 0.675 with Quizartinib + Navitoclax (first compound 0.001 µM); 0.886 with Quizartinib + Navitoclax (first compound 0.003162 µM); 0.91 with Quizartinib + Navitoclax (first compound 0.01 µM). In addition, the relative viability was 0.845 in the assay with Quizartinib + Navitoclax (first compound 0.03162 µM); 0.994 with Quizartinib + Navitoclax (first compound 0.1 µM); 0.757 with Quizartinib + Bortezomib (first compound 0.001 µM); 1.14 with Quizartinib + Bortezomib (first compound 0.003162 µM); 0.968 with Quizartinib + Bortezomib (first compound 0.01 µM); 0.959 with Quizartinib + Bortezomib (first compound 0.03162 µM). The relative viability with Quizartinib + Bortezomib (first compound 0.1 µM) came to 1.23.
As for NCI-H2405, the relative viability was found to be 0.383 in the assay with YM155 + Phenformin (first compound 0.002 µM); 0.39 with YM155 + Phenformin (first compound 0.006325 µM); 0.423 in the assay with YM155 + Phenformin (first compound 0.02 µM); 0.404 with YM155 + Phenformin (first compound 0.06325 µM); 0.961 in the assay with Quizartinib + Pemetrexed (first compound 0.001 µM); 1.04 with Quizartinib + Pemetrexed (first compound 0.003162 µM). Further, the relative viability in the assay with Quizartinib + Pemetrexed (first compound 0.01 µM) is 1.02; in the assay with Quizartinib + Pemetrexed (first compound 0.03162 µM) it was 1.08; with Quizartinib + Pemetrexed (first compound 0.1 µM), 1.15; with Quizartinib + Navitoclax (first compound 0.001 µM) it was 0.912; in the assay with Quizartinib + Navitoclax (first compound 0.003162 µM), 0.858; with Quizartinib + Navitoclax (first compound 0.01 µM) it was 0.942. The relative viability in the assay with Quizartinib + Navitoclax (first compound 0.03162 µM) is 0.784; with Quizartinib + Navitoclax (first compound 0.1 µM), 1.15; in the assay with Quizartinib + Bortezomib (first compound 0.001 µM), 0.689; with Quizartinib + Bortezomib (first compound 0.003162 µM), 1.01; with Quizartinib + Bortezomib (first compound 0.01 µM) it was 1.01; in the assay with Quizartinib + Bortezomib (first compound 0.03162 µM), 1.01. Moreover, in the assay with Quizartinib + Bortezomib (first compound 0.1 µM), the relative viability came to 0.984.
As to NCI-H3122, the relative viability with YM155 + Phenformin (first compound 0.002 µM) came out at 0.362; with YM155 + Phenformin (first compound 0.006325 µM) it was 0.36; with YM155 + Phenformin (first compound 0.02 µM), 0.384; with YM155 + Phenformin (first compound 0.06325 µM), 0.364; in the assay with Quizartinib + Pemetrexed (first compound 0.001 µM), 0.185; in the assay with Quizartinib + Pemetrexed (first compound 0.003162 µM), 0.201. The relative viability stood at 0.193 with Quizartinib + Pemetrexed (first compound 0.01 µM); 0.2 with Quizartinib + Pemetrexed (first compound 0.03162 µM); 0.211 in the assay with Quizartinib + Pemetrexed (first compound 0.1 µM); 0.93 in the assay with Quizartinib + Navitoclax (first compound 0.001 µM); 0.981 in the assay with Quizartinib + Navitoclax (first compound 0.003162 µM); 1.02 in the assay with Quizartinib + Navitoclax (first compound 0.01 µM). The relative viability with Quizartinib + Navitoclax (first compound 0.03162 µM) was 1.03; in the assay with Quizartinib + Navitoclax (first compound 0.1 µM) it was 1.02; in the assay with Quizartinib + Bortezomib (first compound 0.001 µM), 1.01; with Quizartinib + Bortezomib (first compound 0.003162 µM), 1; with Quizartinib + Bortezomib (first compound 0.01 µM), 1.09; with Quizartinib + Bortezomib (first compound 0.03162 µM), 1.02. Further, the relative viability with Quizartinib + Bortezomib (first compound 0.1 µM) was found to be 0.983.
In the case of PC-3 [JPC-3], the relative viability with YM155 + Phenformin (first compound 0.002 µM) was determined as 0.454; with YM155 + Phenformin (first compound 0.006325 µM), 0.521; with YM155 + Phenformin (first compound 0.02 µM), 0.475; in the assay with YM155 + Phenformin (first compound 0.06325 µM) it was 0.473; with Quizartinib + Pemetrexed (first compound 0.001 µM), 0.845; with Quizartinib + Pemetrexed (first compound 0.003162 µM), 1.12. Besides, the relative viability with Quizartinib + Pemetrexed (first compound 0.01 µM) is 0.852; with Quizartinib + Pemetrexed (first compound 0.03162 µM) it was 1; in the assay with Quizartinib + Pemetrexed (first compound 0.1 µM), 1.17; in the assay with Quizartinib + Navitoclax (first compound 0.001 µM), 0.703; with Quizartinib + Navitoclax (first compound 0.003162 µM) it was 0.859; with Quizartinib + Navitoclax (first compound 0.01 µM), 0.768. In addition, the relative viability with Quizartinib + Navitoclax (first compound 0.03162 µM) was 0.835; with Quizartinib + Navitoclax (first compound 0.1 µM), 0.821; in the assay with Quizartinib + Bortezomib (first compound 0.001 µM), 0.782; with Quizartinib + Bortezomib (first compound 0.003162 µM), 0.822; with Quizartinib + Bortezomib (first compound 0.01 µM), 0.859; with Quizartinib + Bortezomib (first compound 0.03162 µM) it was 0.791. Moreover, the relative viability in the assay with Quizartinib + Bortezomib (first compound 0.1 µM) was 0.841.
